For this experiment, the system named is neonatal cardiomyocytes. The experiment can be described thus: Myocyte calcium-contractility assay. Type of experiment: cell-based, rat. The settings on record: anaerobic chamber 16 hours in DMEM 1 mM glucose, reoxygenation two hours. As to the method:
A. Isolation and Culture of Primary Neonate Myocytes.
The following materials are employed: • 10× Heart Dissection Solution (HDS) contains the following components (g/l) in tissue grade water: NaCl, 68; HEPES, 47.6; NaH2PO4, 2; Glucose, 10; KCl, 4; MgSO4, 1, pH adjusted to 7.4. Prior to filter sterilization of diluted (1×HDS) solution, 10 mg phenol red is added to each 500 milliliters of medium. • Transferrin and Bovine Insulin (available from Life Technologies) are resuspended at a concentration of 4 mg/ml in tissue culture grade water. • DMEM-F12—DMEM/F12, powder, 1:1 containing glutamine and pyridoxine hydrochloride (available from Life Technologies). To one liter equivalent of the powder is added 2.43 g of sodium bicarbonate and 10 ml of 100× Penicillin/Streptomycin in 950 ml of tissue culture grade water with stirring. The pH is adjusted to 7.2 with 1M HCl and volume adjusted to 1 liter. The solution is filter sterilized, followed by the addition of 2.5 ml of 4 mg/ml Transferrin, 250 μl 4 mg/ml Insulin and 30.7 mg of bromodeoxyuridine. • DMEM-F12-5% FBS is also prepared for pre-coating the tissue culture plates and initial suspension of the cardiomyocyte pellet. • Collagenase solution-57.1 mg of collagenase is resuspended in 140 ml 1×HDS.
Tissue culture ware is pre-coated with DMEM-F12-5% FBS by incubating […] per well of a 96-well plate and 0.5 ml per 24-well plate at 37° C.
Two-day old rat pups are removed from their mothers and placed in a sterile container. Pups are dipped quickly into 70% alcohol, then decapitated and the body placed in an empty sterile tissue culture dish. An incision is made starting at the neck and progressing towards the belly, cutting through the sternum. The heart is removed and placed in a tissue culture dishes containing 1×HDS. The atria are trimmed, and the remaining ventricles are placed into a separate tissue culture dish containing 1×HDS, where they are sectioned into 3-4 pieces each. Ventricles are then transferred to a sterile 250 ml glass flask and the 1×HDS is removed. Twenty milliliters of pre-warmed collagenase solution is added to the ventricles, followed by incubation at 37° C. with shaking. After 20 minutes, the collagenase solution is removed and replaced with 20 ml fresh pre-warmed collagenase. Incubation is continued for an additional 20 minutes. At the end of the incubation, any tissue chunks are allowed to settle prior to removing the collagenase (containing the isolated cardiomyocytes) from the disrupted tissue pieces. The isolated myocytes are added to a 50 ml Falcon tube containing 2 ml Fetal Bovine Serum (FBS). The remaining tissue pieces are subjected to a second digestion by adding 20 ml fresh pre-warmed collagenase and incubating as above for 20 minutes. This second digest is then centrifuged at 1000 rpm for 5 minutes (tabletop centrifuge). The resulting supernatant is discarded, and the cell pellet is suspended with 4 ml FBS. The resulting cell suspension is placed in the incubator at 37° C. This step is repeated several additional times to harvest additional material.
Percoll gradients are prepared by adding 2.5 ml of 10×HDS to 22.5 ml of Percoll (Life Technologies) with mixing (Percoll Stock). Top Gradient solution (11 ml Percoll Stock and 14 ml 1×HDS) and Bottom Gradient solution (13 ml Percoll Stock and 7 ml 1×HDS) are prepared. Four milliliters of the Top Gradient solution is transferred into 6×15 ml sterile Falcon tubes. Three milliliters of the Bottom Gradient solution is placed in each tube by inserting a serological pipette to the bottom of the tube and slowly adding the liquid.
All the digests (6) are pooled in one 50 ml Falcon tube and centrifuged on a tabletop centrifuge at 1000 rpm for 10 minutes. The supernatant is discarded, and the cell pellet is resuspended in 12 ml of 1×HDS. Two milliliters of the cell suspension is added to the top of each gradient. […]

Consider 27 compounds from patent US7629375B2, “Cytoprotective compounds, pharmaceutical and cosmetic formulations, and methods” (Johnson & Johnson Consumer Companies, Inc., priority 2001, dated 2009).

Structures are written as SMILES.

Turning to `COCOc1cc(C=Cc2ccc([N+](=O)[O-])cc2)cc(CC=C(C)C)c1OCOC` [1,2-bis-methoxymethoxy-3-(3-methyl-but-2-enyl)-5-[2-(4-nitro-phenyl)-vinyl]-benzene], the “calcium transients (Fluo-4) in amounts indicative of ability guard against ischemic damage and maintain contractile function” value (shortened to “calcium transients”) was “presence of calcium transients”. As for `COCOc1cc(C=Cc2ccc([N+](=O)[O-])cc2)cc(OCOC)c1CC=C(C)C` [1,3-bis-methoxymethoxy-2-(3-methyl-but-2-enyl)-5-[2-(4-nitro-phenyl)-vinyl]-benzene], the “calcium transients” value is recorded as “presence of calcium transients”.

Take `COCOc1cc(C=Cc2ccc([N+](=O)[O-])cc2)cc(OCOC)c1` [1,3-bis-methoxymethoxy-5-[2-(4-nitro-phenyl)-vinyl]-benzene]: the “calcium transients” value is “presence of calcium transients”. In the case of `COCOc1cc(C=Cc2ccc([N+](=O)[O-])cc2)c(CC=C(C)C)c(OCOC)c1` [1,5-bis-methoxymethoxy-2-(3-methyl-but-2-enyl)-3-[2-(4-nitro-phenyl)-vinyl]-benzene] it was “presence of calcium transients”; in that of `O=C(O)C(=O)C[n+]1ccc(C=Cc2ccc(O)c(O)c2)cc1.[Br-]` [1-(2-Carboxy-2-oxo-ethyl)-4-[2-(3,4-dihydroxy-phenyl)-vinyl]-pyridinium; bromide], “presence of calcium transients”; in that of `COCOc1c(C/C=C(\C)CCC=C(C)C)cc(C=Cc2ccc([N+](=O)[O-])cc2)cc1OC` [1-(3,7-dimethyl-octa-2,6-dienyl)-3-methoxy-2-methoxymethoxy-5-[2-(4-nitro-phenyl)-vinyl]-benzene], “presence of calcium transients”. The same measure for `COCOc1c(Br)cc(C=Cc2ccc([N+](=O)[O-])cc2)cc1OC` [1-bromo-3-methoxy-2-methoxymethoxy-5-[2-(4-nitro-phenyl)-vinyl]-benzene]: “presence of calcium transients”. Consider `O=C(O)C[n+]1ccc(C=Cc2ccc(O)c(O)c2)cc1.[Br-]` [1-carboxymethyl-4-[2-(3,4-dihydroxy-phenyl)-vinyl]-pyridinium; bromide], for which the “calcium transients” value is listed as “presence of calcium transients”. In the case of `COCOc1c(CC=C(C)C)cc(C=Cc2ccc([N+](=O)[O-])cc2)cc1OC` [1-methoxy-2-methoxymethoxy-3-(3-methyl-but-2-enyl)-5-[2-(4-nitro-phenyl)-vinyl]-benzene] it was “presence of calcium transients”. In the case of `Cc1cc(C=Cc2ccc([N+](=O)[O-])cc2)cc(C)c1O` [2,6-dimethyl-4-[2-(4-nitro-phenyl)-vinyl]-phenol] it was “presence of calcium transients”; in that of `COCOc1cc(C=Cc2ccc([N+](=O)[O-])cc2)cc(OCOC)c1CC=C(C)CCC=C(C)C` [2-(3,7-dimethyl-octa-2,6-dienyl)-1,3-bis-methoxymethoxy-5-[2-(4-nitro-phenyl)-vinyl]-benzene], “presence of calcium transients”. In the case of `COCOc1ccc(C=Cc2nccs2)cc1OCOC` [2-[2-(3,4-bis-methoxymethoxy-phenyl)-vinyl]-thiazole] it was “presence of calcium transients”. Regarding `O=C1c2ccccc2C(=O)c2cc(C=Cc3ccc(O)c(O)c3)ccc21` [2-[2-(3,4-dihydroxy-phenyl)-vinyl]-anthraquinone], the “calcium transients” value is given as “presence of calcium transients”. With `COc1cc(C=Cc2ccc([N+](=O)[O-])cc2)cc(Br)c1O` [2-bromo-6-methoxy-4-[2-(4-nitro-phenyl)-vinyl]-phenol], the “calcium transients” value is on record as “presence of calcium transients”. The same measure for `COCOc1ccc(C=CC=Cc2ccc([N+](=O)[O-])cc2)cc1OC` [2-methoxy-1-methoxymethoxy-4-[4-(4-nitro-phenyl)-buta-1,3-dienyl]-benzene]: “presence of calcium transients”.

`COc1cc(C=CC=Cc2ccc([N+](=O)[O-])cc2)ccc1O` [2-methoxy-4-[4-(4-nitro-phenyl)-buta-1,3-dienyl]-phenol]: the “calcium transients” value was “presence of calcium transients”. In the case of `COCOc1ccc(C=C2C(=O)Oc3ccccc32)cc1OCOC` [3-(3,4-bis-methoxymethoxy-benzylidene)-3H-benzofuran-2-one] it was “presence of calcium transients”; in that of `CC(C)(C)c1cc(C=C2C(=O)Oc3ccc(O)cc32)cc(C(C)(C)C)c1O` [3-(3,5-di-tert-butyl-4-hydroxy-benzylidene)-5-hydroxy-3H-benzofuran-2-one], “presence of calcium transients”; in that of `O=[N+]([O-])C=Cc1ccc(O)c(O)c1` [4-(2-nitro-vinyl)-benzene-1,2-diol], “presence of calcium transients”. In the case of `CC1=NN(c2ccccc2)C(=O)C1=Cc1ccc(O)c(O)c1` [4-(3,4-dihydroxy-benzylidene)-5-methyl-2-phenyl-2,4-dihydro-pyrazol-3-one] it was “presence of calcium transients”; in that of `COC(=O)c1ccc(C=Cc2ccc3[nH]cnc3c2)cc1` [4-[2-(1H-benzoimidazol-5-yl)-vinyl]-benzoic acid methyl ester], “presence of calcium transients”; in that of `COCOc1ccc(C=Cc2ccnc(-c3cc(C)ccn3)c2)cc1OCOC` [4-[2-(3,4-bis-methoxymethoxy-phenyl)-vinyl]-4′-methyl-[2,2′]bipyridinyl], “presence of calcium transients”.

With `COCOc1ccc(/C=C/c2ccc(C(=O)N(CCO)CCO)cc2)cc1OCOC` [4-[2-(3,4-bis-methoxymethoxy-phenyl)-vinyl]-N,N-bis-(2-hydroxy-ethyl)-benzamide], the “calcium transients” value was “presence of calcium transients”. The same measure for `COCOc1ccc(C=Cc2ccc(C(=O)OC)c(C(=O)OC)c2)cc1OCOC` [4-[2-(3,4-bis-methoxymethoxy-phenyl)-vinyl]-phthalic acid dimethyl ester]: “presence of calcium transients”; for `O=C(c1ccc(C=Cc2ccc(O)c(O)c2)cc1)N(CCO)CCO` [4-[2-(3,4-dihydroxy-phenyl)-vinyl]-N,N-bis-(2-hydroxy-ethyl)-benzamide]: “presence of calcium transients”.

As for `O=C(O)c1ccc(C=Cc2ccc(O)c(O)c2)cc1` [4-[2-(3,4-dihydroxy-phenyl)-vinyl]-benzoic acid], the “calcium transients” value was “presence of calcium transients”. In the case of `COC(=O)c1ccc(C=Cc2cc(C)c(O)c(C)c2)cc1` [4-[2-(4-hydroxy-3,5-dimethyl-phenyl)-vinyl]-benzoic acid methyl ester] it was “presence of calcium transients”.
